Reference: PubChem BioAssay AID328 (DTP/NCI, 2004)
Where “and” joins values, the source holds several entries; their conditions need not be identical. Equal values may be shown once. Inconclusive results and toxic doses are left out.

Test system: BDF1 mice, P388 leukemia ip, median survival T/C
Experiment: NCI In Vivo Anticancer Drug Screen. Data for tumor model P388 Leukemia (intraperitoneal) in B6D2F1 (BDF1) mice
Conditions: endpoint: median survival time, higher = longer survival
Summary of the method: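 Steps: implant the tumour, treat one group with compound and another with vehicle, record survival, then divide treated by control.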

[1] = dose: 50.0 mg/kg/injection, schedule: Q01DX009 (ip), vehicle: saline with Tween-80
[2] = dose: 100.0 mg/kg/injection, schedule: Q01DX009 (ip), vehicle: saline with Tween-80
[3] = dose: 200.0 mg/kg/injection, schedule: Q01DX009 (ip), vehicle: saline with Tween-80
[4] = dose: 100.0 mg/kg/injection, schedule: Q04DX003 (ip), vehicle: Klucel (hydroxypropylcellulose) (HPC)
[5] = dose: 200.0 mg/kg/injection, schedule: Q04DX003 (ip), vehicle: Klucel (hydroxypropylcellulose) (HPC)
[6] = dose: 400.0 mg/kg/injection, schedule: Q04DX003 (ip), vehicle: Klucel (hydroxypropylcellulose) (HPC)
[7] = dose: 33.0 mg/kg/injection, schedule: Q04DX003 (ip), vehicle: saline
[8] = dose: 50.0 mg/kg/injection, schedule: Q01DX009 (ip), vehicle: saline
[9] = dose: 50.0 mg/kg/injection, schedule: Q04DX003 (ip), vehicle: saline
[10] = dose: 75.0 mg/kg/injection, schedule: Q04DX003 (ip), vehicle: saline
[11] = dose: 100.0 mg/kg/injection, schedule: Q04DX003 (ip), vehicle: saline
[12] = dose: 50.0 mg/kg/injection, schedule: Q04DX003 (ip), vehicle: saline with Tween-80
[13] = dose: 100.0 mg/kg/injection, schedule: Q04DX003 (ip), vehicle: saline with Tween-80
[14] = dose: 200.0 mg/kg/injection, schedule: Q04DX003 (ip), vehicle: saline with Tween-80

In the case of `CCCCOC(=O)c1ccc(OP(=O)(N(C)C)N(C)C)cc1`, the T/C [1] is reported as 100 % of control, the T/C [2] is reported as 94 % of control and the T/C [3] is reported as 87 % of control.
In the case of `CCOC(=O)C(C)(C)CCl`, the T/C [4] is reported as 90 % of control, the T/C [5] is reported as 90 % of control and the T/C [6] is reported as 100 % of control.
`Cc1c2ccccc2c(CSC(=N)N)c2ccccc12` was tested, and the T/C (dose: 9.38 mg/kg/injection, schedule: Q04DX003 (ip), vehicle: saline with Tween-80) was 154 % of control, the T/C (dose: 12.5 mg/kg/injection, schedule: Q04DX003 (ip), vehicle: saline) was 160 % of control and the T/C (dose: 25.0 mg/kg/injection, schedule: Q04DX003 (ip), vehicle: saline) was 180 % of control.
In the case of `O=C1C(=O)c2ccccc2-c2ccccc21.O=C1C(=O)c2ccccc2-c2ccccc21.[Hg]`, the T/C (dose: 1.5 mg/kg/injection, schedule: Q01DX009 (ip), vehicle: saline with Tween-80) is reported as 110 % of control, the T/C (dose: 2.6 mg/kg/injection, schedule: Q01DX009 (ip), vehicle: saline with Tween-80) is reported as 100 % of control and the T/C (dose: 3.0 mg/kg/injection, schedule: Q01DX009 (ip), vehicle: saline with Tween-80) is reported as 112 % of control. The T/C (dose: 4.0 mg/kg/injection, schedule: Q01DX009 (ip), vehicle: saline with Tween-80) was 110 % of control, the T/C (dose: 6.0 mg/kg/injection, schedule: Q01DX009 (ip), vehicle: saline with Tween-80) was 116 % of control and the T/C (dose: 9.0 mg/kg/injection, schedule: Q01DX009 (ip), vehicle: saline with Tween-80) was 110 % of control.
In the case of `CC1CN1P(=O)(N1CC1C)N1CC1C` (centres undefined), the T/C (dose: 25.0 mg/kg/injection, schedule: Q01DX009 (ip), vehicle: saline) is reported as 100 % of control, the T/C [7] is reported as 222 % of control and the T/C [8] is reported as 105 % of control. For the same compound, the T/C [9] was 177 % of control and 186 % of control, the T/C [10] was 250 % of control and 116 % of control and the T/C [11] was 236 % of control.
In the case of `Cc1ccc(N2C(=O)C=CC2=O)cc1`, the T/C (dose: 5.0 mg/kg/injection, schedule: Q01DX009 (ip), vehicle: saline sonified) is reported as 100 % of control, the T/C (dose: 10.0 mg/kg/injection, schedule: Q01DX009 (ip), vehicle: saline sonified) is reported as 119 % of control and the T/C (dose: 20.0 mg/kg/injection, schedule: Q01DX009 (ip), vehicle: saline sonified) is reported as 100 % of control.
For `CCOc1ncc([N+](=O)[O-])c(OCC)n1`, the T/C [1] was 101 % of control, the T/C [2] was 106 % of control and the T/C [3] was 108 % of control. For the same compound, the T/C (dose: 400.0 mg/kg/injection, schedule: Q01DX009 (ip), vehicle: saline with Tween-80) was 106 % of control.
With `CCCCCCOP(=O)(N1CC1C)N1CC1C` (centres undefined) the T/C [8] was 122 % of control, the T/C (dose: 100.0 mg/kg/injection, schedule: Q01DX009 (ip), vehicle: saline) was 150 % of control and 182 % of control and the T/C (dose: 200.0 mg/kg/injection, schedule: Q01DX009 (ip), vehicle: saline) was 86 % of control.
For `COc1ccc(C2CCCCC2O)cc1` (centres undefined), the T/C (dose: 100.0 mg/kg/injection, schedule: Q01DX009 (ip), vehicle: Klucel (hydroxypropylcellulose) (HPC)) was 100 % of control, the T/C [4] was 100 % of control and the T/C (dose: 200.0 mg/kg/injection, schedule: Q01DX009 (ip), vehicle: Klucel (hydroxypropylcellulose) (HPC)) was 100 % of control. For the same compound, the T/C [5] was 100 % of control and the T/C [6] was 110 % of control.
For `CSc1nc2n(Cc3c[nH]c(=O)[nH]c3=O)cc(C)cc-2c(=O)n1`, the T/C (dose: 6.25 mg/kg/injection, schedule: Q01DX009 (ip), vehicle: saline with Tween-80) was 101 % of control, the T/C (dose: 12.5 mg/kg/injection, schedule: Q01DX009 (ip), vehicle: saline with Tween-80) was 102 % of control and the T/C (dose: 25.0 mg/kg/injection, schedule: Q01DX009 (ip), vehicle: saline with Tween-80) was 95 % of control. For the same compound, the T/C [1] was 93 % of control, the T/C (dose: 100.0 mg/kg/injection, schedule: Q01DX001 (ip), vehicle: saline with Tween-80) was 113 % of control and the T/C (dose: 200.0 mg/kg/injection, schedule: Q01DX001 (ip), vehicle: saline with Tween-80) was 106 % of control.
With `Nc1c2ccccc2cc2ccccc12` the T/C [1] was 108 % of control, the T/C [12] was 108 % of control and the T/C [2] was 108 % of control. The T/C [13] was 95 % of control, the T/C [3] was 113 % of control and the T/C [14] was 91 % of control.
In the case of `CC1(C)N=C(N)N=C(N)N1c1cccc(C#N)c1`, the T/C (dose: 22.0 mg/kg/injection, schedule: Q04DX003 (ip), vehicle: saline) is reported as 111 % of control and 118 % of control, the T/C [7] is reported as 122 % of control and 123 % of control and the T/C [9] is reported as 118 % of control and 123 % of control. For the same compound, the T/C [10] was 95 % of control and the T/C [11] was 116 % of control.
For `O=C1OC2=C(Cl)C=CC=CC2C12C1C=CC=CC12` (centres undefined), the T/C [1] was 113 % of control, the T/C [2] was 110 % of control and the T/C [3] was 107 % of control.
`Cc1ccc(N2CCOC2=O)cc1N1CCOC1=O` was tested, and the T/C (dose: 25.0 mg/kg/injection, schedule: Q01DX009 (ip), vehicle: other) was 100 % of control, the T/C (dose: 25.0 mg/kg/injection, schedule: Q04DX003 (ip), vehicle: other) was 109 % of control and the T/C (dose: 50.0 mg/kg/injection, schedule: Q01DX009 (ip), vehicle: other) was 100 % of control. The T/C (dose: 50.0 mg/kg/injection, schedule: Q04DX003 (ip), vehicle: other) was 100 % of control, the T/C (dose: 100.0 mg/kg/injection, schedule: Q01DX009 (ip), vehicle: other) was 109 % of control and the T/C (dose: 100.0 mg/kg/injection, schedule: Q04DX003 (ip), vehicle: other) was 100 % of control.
In the case of `CN(C)c1ccc(C=Nc2ccc3c(c2)/C(=C/c2ccc(N(C)C)cc2)c2ccccc2-3)cc1`, the T/C (dose: 25.0 mg/kg/injection, schedule: Q04DX003 (ip), vehicle: saline with Tween-80) is reported as 116 % of control, the T/C [12] is reported as 122 % of control and the T/C [13] is reported as 116 % of control. The T/C [14] was 121 % of control.
In the case of `COC(=O)N(CCCl)N=O`, the T/C (dose: 2.5 mg/kg/injection, schedule: Q01DX001 (ip), vehicle: saline with Tween-80) is reported as 109 % of control, the T/C (dose: 5.0 mg/kg/injection, schedule: Q01DX001 (ip), vehicle: saline with Tween-80) is reported as 109 % of control and the T/C (dose: 10.0 mg/kg/injection, schedule: Q01DX001 (ip), vehicle: saline with Tween-80) is reported as 123 % of control.
For `O=C1NC(c2cccs2)(c2cccs2)C(=O)N1Cl`, the T/C (dose: 6.25 mg/kg/injection, schedule: Q01DX009 (ip), vehicle: water) was 94 % of control, the T/C (dose: 6.25 mg/kg/injection, schedule: Q04DX003 (ip), vehicle: water) was 97 % of control and the T/C (dose: 12.5 mg/kg/injection, schedule: Q01DX009 (ip), vehicle: water) was 104 % of control. For the same compound, the T/C (dose: 12.5 mg/kg/injection, schedule: Q04DX003 (ip), vehicle: water) was 97 % of control, the T/C (dose: 25.0 mg/kg/injection, schedule: Q01DX009 (ip), vehicle: water) was 103 % of control and the T/C (dose: 25.0 mg/kg/injection, schedule: Q04DX003 (ip), vehicle: water) was 97 % of control. For the same compound, the T/C (dose: 50.0 mg/kg/injection, schedule: Q01DX009 (ip), vehicle: water) was 116 % of control, the T/C (dose: 50.0 mg/kg/injection, schedule: Q04DX003 (ip), vehicle: water) was 95 % of control and the T/C (dose: 100.0 mg/kg/injection, schedule: Q04DX003 (ip), vehicle: water) was 95 % of control. The T/C (dose: 200.0 mg/kg/injection, schedule: Q04DX003 (ip), vehicle: water) was 88 % of control.
